Experimental data published in US20240109910A1, “HEXAHYDRO-5,8-EPOXYCYCLOHEPTA[c]PYRAZOLE DERIVATIVES USEFUL AS MODULATORS OF THE CB1 AND / OR CB2 RECEPTORS” (JANSSEN PHARMACEUTICA NV, priority 2019, published 2024).
pEC50: −log10 of the molar value. Like-named read-outs stand apart in the source and are kept apart here.

Assays:
hCB2 receptor = hCB2 receptor (Homo sapiens, UniProt P34972); test: Agonism of CB2 by detection of cAMP using HTRF; format: cell-based; conditions: for Emax: normalized to DMSO and maximal activation (5 nM CP55940)
hCB2 receptor, sequence (P34972 whole entry): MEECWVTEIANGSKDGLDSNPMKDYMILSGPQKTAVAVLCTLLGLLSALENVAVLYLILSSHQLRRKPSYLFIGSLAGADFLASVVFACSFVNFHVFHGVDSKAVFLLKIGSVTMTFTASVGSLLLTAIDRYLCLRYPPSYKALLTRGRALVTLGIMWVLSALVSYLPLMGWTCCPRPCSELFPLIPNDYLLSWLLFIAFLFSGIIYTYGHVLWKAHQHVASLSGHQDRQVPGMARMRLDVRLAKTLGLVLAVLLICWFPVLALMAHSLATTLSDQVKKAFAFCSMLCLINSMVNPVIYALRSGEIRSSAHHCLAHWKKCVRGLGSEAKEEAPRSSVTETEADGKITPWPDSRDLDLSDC

hCB1 receptor = hCB1 receptor (Homo sapiens, UniProt P21554); test: Agonism of CB1 by detection of cAMP using HTRF; format: cell-based; conditions: for Emax: normalized to DMSO and maximal activation (5 nM CP55940)
hCB1 receptor, sequence (P21554 whole entry): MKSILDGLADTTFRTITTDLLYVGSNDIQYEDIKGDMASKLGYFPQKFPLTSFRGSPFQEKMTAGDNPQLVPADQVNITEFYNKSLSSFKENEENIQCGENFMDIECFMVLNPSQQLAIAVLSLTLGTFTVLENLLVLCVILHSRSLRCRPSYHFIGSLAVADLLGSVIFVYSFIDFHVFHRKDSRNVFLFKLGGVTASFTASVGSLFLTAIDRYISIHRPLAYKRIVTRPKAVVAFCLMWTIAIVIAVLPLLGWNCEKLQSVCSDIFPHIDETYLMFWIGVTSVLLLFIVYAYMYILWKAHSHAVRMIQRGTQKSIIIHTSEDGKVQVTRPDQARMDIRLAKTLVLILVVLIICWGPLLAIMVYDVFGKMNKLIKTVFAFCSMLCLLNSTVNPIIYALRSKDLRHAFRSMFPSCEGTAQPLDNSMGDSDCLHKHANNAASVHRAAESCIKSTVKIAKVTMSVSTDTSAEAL
Experimental: Method for Assaying Agonism of CB1 or CB2 by Detection of cAMP Using Homogeneous Time-Resolved Fluorescence (HTRF®)
CHOP-K1 cells stably expressing the CB1 receptor (PerkinElmer, ES-110-C) or the CB2 receptor (PerkinElmer, ES-111-CF) were seeded into 384 well white TC-treated plates (Greiner 781080) at 7000 cells per well in Ham's media (Gibco #31765-035) supplemented with 10% FBS (Gibco #16000-044) and 500 μg/mL Geneticin (Gibco #10131-027) and cultured overnight. The next day, plates were washed one time in assay buffer (HBSS with Ca^2+ and Mg^2+ (Corning #21-023-CV)+20 mM HEPES (Corning #25-060-Cl) and 0.01% BSA (Sigma A2153)). In a separate compound plate (Greiner 781201-906), 50 nL of test compound or DMSO was transferred using the Echo 550 (Labcyte), then 40 μL/well of assay buffer with 0.5 mM IBMX, 2 μM Forskolin (Sigma F3917), and 0.01% BSA was added. For the CB1 assay, assay buffer was dumped from the cell plate and fresh assay buffer containing 0.5 mM IBMX (Sigma I5679) was added at 30 μL/well, and the plate was incubated for 1 hr at 37° C., 5% CO2. Following the IBMX pre-treatment step, buffer was dumped from the cell plate, and 20 μL/well of the assay buffer with test compound was transferred into the cell plate with a subsequent incubation of 20 min at room temperature. Reagents for cAMP detection (cisbio 62AM4PEJ) were prepared and subsequently transferred to the cell plate at 20 μL/well. Following a 1 hr incubation at room temperature, the plate was read on the Pherastar FX (BMG, excitation 320 nm, detection at 620 nm (donor) and 665 nm (acceptor)). The ratio of signal at 665 nm/620 nm was determined for each well in the plate. For each assay day, a cAMP standard curve was run in parallel to assess the range of response and determine the concentration of cAMP in each well. Control wells (n=16 of each) with no activation of CB1 receptor (DMSO) and maximal activation (5 nM CP55940, Sigma) were used to normalize the data and to determine signal-to-background ratio and Z′. For the CB2 assay, conditions were as described above for the CB1 assay, except that the IBMX preincubation step was not used and that the 20 min compound incubation step occurred in the incubator at 37° C., 5% CO2.
EC50 values were calculated from dose response curves by nonlinear regression analysis using PRISM software.
Representative compounds of the present invention were tested according to the procedures described in Biological Example 1 above, with results as listed in Table 3, below. If a compound was tested more than once (due to multiple samples or batches), then the value listed in Table 3 below represents the average of the measured values.

[1] = CHO cells stably expressing CB2 receptor
[2] = CHO cells stably expressing CB1 receptor
[3] = CHO cells stably expressing CB2 receptor, cAMP HTRF, forskolin-stimulated, average if tested more than once, read-out: hCB2 CHO EC50
[4] = CHO cells stably expressing CB1 receptor, cAMP HTRF, forskolin-stimulated, average if tested more than once, read-out: hCB1 CHO EC50

Row | Structure (SMILES) | pEC50 (hCB2 receptor) | Emax (hCB2 receptor; [1]) | pEC50 (hCB1 receptor) | Emax (hCB1 receptor; [2]) | pEC50 (hCB2 receptor; [3]) | pEC50 (hCB1 receptor; [4])
1 | CC(C)(C)c1nnc(-c2nn(-c3cnccn3)c3c2CC2CCC3O2)s1 (stereo not shown) [Compound 38, 3-(5-(tert-butyl)-1,3,4-thiadiazol-2-yl)-1-(pyrazin-2-yl)-1,4,5,6,7,8-hexahydro-5,8-epoxycyclohepta[c]pyrazole] | 10.40 | 100% | 6.55 | 114% | – | –
2 | O=C(NC12CC3CC(CC1C3)C2)c1nn(-c2c[n+]([O-])ccn2)c2c1CC1CCC2O1 [Compound 21, 3-(3-(((2R,3as,5S,6as)-hexahydro-2,5-methanopentalen-3a(1H)-yl)carbamoyl)-5,6,7,8-tetrahydro-5,8-epoxycyclohepta[c]pyrazol-1(4H)-yl)pyrazine 1-oxide] | – | 99.9% | – | 94.9% | 10.70 | 7.55
3 | CC(C)(C)NC(=O)c1nn(-c2c[n+]([O-])ccn2)c2c1CC1CCC2O1 (stereo not shown) [Compound 31, 3-(3-(tert-butylcarbamoyl)-5,6,7,8-tetrahydro-5,8-epoxycyclohepta[c]pyrazol-1(4H)-yl)pyrazine 1-oxide] | – | 99.7% | – | 83.2% | 9.48 | 5.84
4 | CC(C)(C)c1nnc(-c2nn(-c3c[n+]([O-])ccn3)c3c2CC2CCC3O2)o1 (stereo not shown) [Compound 29, 3-(3-(5-(tert-butyl)-1,3,4-oxadiazol-2-yl)-5,6,7,8-tetrahydro-5,8-epoxycyclohepta[c]pyrazol-1(4H)-yl)pyrazine 1-oxide] | – | 101% | – | 79.3% | 9.70 | 5.62
5 | CC(C)(C)[C@@H](CO)NC(=O)c1nn(-c2c[n+]([O-])ccn2)c2c1C[C@H]1CC[C@@H]2O1 [Compound 16, 3-((5R,8S)-3-(((S)-1-hydroxy-3,3-dimethylbutan-2-yl)carbamoyl)-5,6,7,8-tetrahydro-5,8-epoxycyclohepta[c]pyrazol-1(4H)-yl)pyrazine 1-oxide] | – | 101% | – | 91.3% | 10.05 | 6.45
6 | O=C(NC12CC3CC(CC1C3)C2)c1nn(-c2ccc(F)cc2F)c2c1CC1CCC2O1 [Compound 41, 1-(2,4-difluorophenyl)-N-((2R,3as,5S,6as)-hexahydro-2,5-methanopentalen-3a(1H)-yl)-1,4,5,6,7,8-hexahydro-5,8-epoxycyclohepta[c]pyrazole-3-carboxamide] | – | 99.1% | – | 98% | 10.10 | 9.15
7 | CC(C)(C)NC(=O)c1nn(-c2ccc(F)cc2F)c2c1CC1CCC2O1 (stereo not shown) [Compound 1, N-(tert-butyl)-1-(2,4-difluorophenyl)-1,4,5,6,7,8-hexahydro-5,8-epoxycyclohepta[c]pyrazole-3-carboxamide] | – | 95.6% | – | 99% | 8.92 | 6.97
